In patent US20100298251A1, “WOUND-HEALING AGENT CONTAINING MOMORDICAE SEMEN EXTRACT” (priority 2007, published 2010):
“And” between values parts separate entries of the source, which are not always exact repeats. Identical values can stand only once.

System: wounded mouse skin
Experiment: Wound-healing effect in wounded skin mouse model (topical, once daily for 10 days)
Type: in vivo
[1] = group mean (X, 5 mice), topical x10, dose/mouse: extract 50 μg, fraction 3 10 μg, saponin I 5 μg, CGS-21680 10 μg
[2] = group mean (X, 5 mice), topical x10, dose/mouse: extract 50 μg, fraction 3 10 μg, saponin I 5 μg, CGS-21680 10 μg, * P<0.05 vs vehicle
[3] = individual mouse (N 1-5), same doses as group means

Description: Thus prepared test materials(20 μl) were topically applied on the wounded mouse skin, once daily for 10 consecutive days.
As a positive control drug, CGS-21680 (Tocris, USA) was prepared same as the above, and topically administered at a dosage of 10 μg/20 μl, once daily for 10 consecutive days.
Twenty-five male mice of CD-1 origin having 24 g±2 g of body weight were divided into 5 groups. The mice were put into separate cages. After anesthesia with hexobarbital (90 mg/kg, IP), the furs on the shoulders and the backs of the mice were shaved. A portion of skin including a muscle layer beneath the skin and a tissue attached thereof was cut off by using a sharp punch (ID12 mm). After being wounded on the skin, the mice were administered topically with the test materials of Momordicae semen extract, Momordica saponin I fraction 3, Momordica saponin I, and CGS-21680 were, respectively, at a concentration of 50, 10, 5, and 10 μg/20 μl, respectively, once daily for 10 consecutive days.
The area of wounded skin detected on a transparent plastic sheet was measured using Image-ProPlus (Media Cybernetics, Version 4.5.0.29) on day 1, 3, 5, 7, 9, and 11. […] The Dunnett's test was performed after one-way analysis of variance (one-way ANOVA), in order for the comparison between the treated group and the vehicle group at each measuring point. The difference was of statistical significance at P<0.05.

CC1OC(OC2C(O)C(C(=O)O)OC(OC3CCC4(C)C(CCC5(C)C4CC=C4C6CC(C)(C)CCC6(C(=O)OC6OC(C)C(O)C(O)C6OC6OC(C)C(OC7OCC(O)C(O)C7O)C(OC7OC(CO)C(O)C(OC8OCC(O)C(O)C8O)C7O)C6O)CCC45C)C3(C)C=O)C2OC2OC(CO)C(O)C(O)C2O)C(O)C(O)C1O [Momordica Saponin I, 3-O-beta-D-Galactopyranosyl (1->2)-[alpha-L-rhamnopyranosyl (1->3)]-beta-D-glucuronopyranosido-28-O-beta-D-xylopyranosyl (1->3)-beta-D-glucopyranosyl (1->3)-[beta-D-xylopyranosyl (1->4)]-alpha-L-rhamnopyranosyl (1->2)-beta-D-fucopyranosyl gypsogenin]
Wound Closure Rate (%) Day 1 [1]: 0.0%
Wound Closure Rate (%) Day 3 [2]: *40.1%
Wound Closure Rate (%) Day 5 [2]: *53.0%
Wound Closure Rate (%) Day 7 [2]: *66.1%
Wound Closure Rate (%) Day 9 [2]: *77.3%
Wound Closure Rate (%) Day 11 [2]: *83.4%
CT50 (time required for wound closure) [2]: *5.6 Days
Wound Closure Rate (%) Day 1 [3]: 0.0%
Wound Closure Rate (%) Day 3 [3]: 32.9% and 45.4% (2×) and 31.2% and 45.6%
Wound Closure Rate (%) Day 5 [3]: 54.4% and 54.8% and 48.8% and 51.4% and 55.5%
Wound Closure Rate (%) Day 7 [3]: 69.9% and 71.5% and 58.8% and 62.9% and 67.5%
Wound Closure Rate (%) Day 9 [3]: 80.8% and 80.4% and 69.4% and 75.6% and 80.5%
Wound Closure Rate (%) Day 11 [3]: 85.0% and 88.3% and 78.1% and 84.6% and 81.1%
CT50 (time required for wound closure) [3]: 5.5 days and 5.2 days and 6.3 days and 5.6 days and 5.3 days
wound-healing effect (overall statement on Table 2 and FIG. 1): superior wound-healing effects

CCNC(=O)[C@H]1O[C@@H](n2cnc3c(N)nc(NCCc4ccc(CCC(=O)O)cc4)nc32)[C@H](O)[C@@H]1O [CGS-21680, reference compound]
Wound Closure Rate (%) Day 1 [1]: 0.0%
Wound Closure Rate (%) Day 3 [2]: *45.1%
Wound Closure Rate (%) Day 5 [2]: *58.5%
Wound Closure Rate (%) Day 7 [2]: *68.5%
Wound Closure Rate (%) Day 9 [2]: *79.0%
Wound Closure Rate (%) Day 11 [2]: *83.1%
CT50 (time required for wound closure) [2]: *5.2 Days
Wound Closure Rate (%) Day 1 [3]: 0.0%
Wound Closure Rate (%) Day 3 [3]: 46.7% (2×) and 36.0% and 54.4% and 41.6%
Wound Closure Rate (%) Day 5 [3]: 62.5% and 59.3% and 55.5% and 59.6% and 55.8%
Wound Closure Rate (%) Day 7 [3]: 71.2% and 66.5% and 62.7% and 71.8% and 70.3%
Wound Closure Rate (%) Day 9 [3]: 79.9% and 74.7% and 79.7% and 81.6% and 79.2%
Wound Closure Rate (%) Day 11 [3]: 85.6% and 84.6% and 78.3% and 82.9% and 84.3%
CT50 (time required for wound closure) [3]: 5.0 days and 5.6 days and 5.2 days and 5.1 days and 5.3 days
